Measured values from US9422277B2, “Tricyclic substituted thiadiazine dioxide compounds as BACE inhibitors, compositions and their use” (Merck Sharp & Dohme Corp., priority 2012, dated 2016).

Legend:
[1] = target: soluble human BACE1 catalytic domain (Homo sapiens (Human), UniProt P56817); experiment: BACE1 HTRF FRET Assay; assay type: biochemical; details: Ki calculated from IC50 using the Cheng-Prusoff equation
Description: A homogeneous time-resolved FRET assay can be used to determine IC50 values for inhibitors of the soluble human BACE1 catalytic domain. This assay monitors the increase of 620 nm fluorescence that resulted from BACE1 cleavage of an APPswedish APP^swe mutant peptide FRET substrate (QSY7-[…]-Europium-amide). This substrate contains an N-terminal QSY7 moiety that serves as a quencher of the C-terminal Europium fluorophore (620 nm Em). In the absence of enzyme activity, 620 nm fluorescence is low in the assay and increased linearly over 3 hours in the presence of uninhibited BACE1 enzyme Inhibition of BACE1 cleavage of the QSY7-APP^swe-Eu substrate by inhibitors is manifested as a suppression of 620 nm fluorescence.
Reactions are initiated by addition of 10 μl of 600 nM QSY7-APP^swe-Eu substrate (200 nM final) to give a final reaction volume of 30 μl in a 384 well Nunc HTRF plate. The reactions are incubated at 30° C. for 1.5 hours. The 620 nm fluorescence is then read on a Rubystar HTRF plate reader (BMG Labtechnologies) using a 50 millisecond delay followed by a 400 millisecond acquisition time window Inhibitor IC50 values are derived from non-linear regression analysis of concentration response curves.

[2] = target: purified human autoBACE-2 (Homo sapiens (Human), UniProt Q9Y5Z0); experiment: BACE-2 Assay (BACE-HTRF assay); assay type: biochemical; details: Ki calculated from IC50 using the Cheng-Prusoff equation; read-out: BACE2 Ki
Method: Inhibitor IC50s at purified human autoBACE-2 are determined in a time-resolved endpoint proteolysis assay that measures hydrolysis of the QSY7-[…]-Eu-amide FRET peptide substrate (BACE-HTRF assay). BACE-mediated hydrolysis of this peptide results in an increase in relative fluorescence (RFU) at 620 nm after excitation with 320 nm light Inhibitor compounds, prepared at 3× the desired final concentration in 1×BACE assay buffer (20 mM sodium acetate pH 5.0, 10% glycerol, 0.1% Brij-35) supplemented with 7.5% DMSO are pre-incubated with an equal volume of autoBACE-2 enzyme diluted in 1×BACE assay buffer (final enzyme concentration 1 nM) in black 384-well NUNC plates for 30 minutes at 30° C. […] DMSO is present at 5% final concentration in the assay. Following laser excitation of sample wells at 320 nm, the fluorescence signal at 620 nm is collected for 400 ms following a 50 μs delay on a RUBYstar HTRF plate reader (BMG Labtechnologies). Raw RFU data is normalized to maximum (1.0 nM BACE/DMSO) and minimum (no enzyme/DMSO) RFU values. IC50s are determined by nonlinear regression analysis (sigmoidal dose response, variable slope) of percent inhibition data with minimum and maximum values set to 0 and 100 percent respectively. Similar IC50s are obtained when using raw RFU data. The Ki values are calculated from the IC50 using the Cheng-Prusoff equation.

Sequence of soluble human BACE1 catalytic domain (P56817 75-416): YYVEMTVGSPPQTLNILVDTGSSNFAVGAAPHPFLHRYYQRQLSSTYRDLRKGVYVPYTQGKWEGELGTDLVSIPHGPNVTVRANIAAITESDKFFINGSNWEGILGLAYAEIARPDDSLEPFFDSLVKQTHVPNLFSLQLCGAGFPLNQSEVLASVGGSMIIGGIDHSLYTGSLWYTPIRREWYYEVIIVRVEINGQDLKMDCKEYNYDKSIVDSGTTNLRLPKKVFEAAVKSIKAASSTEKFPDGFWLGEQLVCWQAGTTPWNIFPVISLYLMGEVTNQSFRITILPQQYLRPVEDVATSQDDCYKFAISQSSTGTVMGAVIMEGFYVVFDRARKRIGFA
Sequence of purified human autoBACE-2 (Q9Y5Z0 63-473 limits assumed): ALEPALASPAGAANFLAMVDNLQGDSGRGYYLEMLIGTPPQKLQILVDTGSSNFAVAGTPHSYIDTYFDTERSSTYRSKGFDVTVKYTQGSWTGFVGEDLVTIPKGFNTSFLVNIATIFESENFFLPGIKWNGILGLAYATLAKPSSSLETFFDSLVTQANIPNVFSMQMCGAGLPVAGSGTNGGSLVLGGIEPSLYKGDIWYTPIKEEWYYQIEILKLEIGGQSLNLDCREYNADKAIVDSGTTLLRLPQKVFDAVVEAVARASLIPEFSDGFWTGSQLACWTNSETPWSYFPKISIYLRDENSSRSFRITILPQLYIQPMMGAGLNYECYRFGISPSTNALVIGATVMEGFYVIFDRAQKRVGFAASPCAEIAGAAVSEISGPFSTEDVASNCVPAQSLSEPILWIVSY

| SMILES | Ki [1] | Ki [2] |
| --- | --- | --- |
| CN1C(=N)N[C@](C)(c2sc(-c3[nH]cnc3-c3ccccc3)cc2Cl)CS1(=O)=O [Example 4] | 9030 nM | 3120 nM |
| CN1C(=N)N[C@](C)(c2sc(-c3cn(-c4ccccc4)nn3)cc2Cl)CS1(=O)=O [Example 5] | 1980 nM | 281 nM |
| CN1C(=N)N[C@](C)(c2sc(-c3cc(-c4ccccc4)on3)cc2Cl)CS1(=O)=O [Example 12] | 1170 nM | 364 nM |
| CN1C(=N)N[C@](C)(c2cc(-c3cc(-c4ccccc4)on3)ccc2F)CS1(=O)=O [Example 13] | 910 nM | 207 nM |
| CN1C(=N)N[C@](C)(c2cc(-c3cc(-c4ccccc4)on3)ccc2F)CS1(=O)=O [Example 15] | 326 nM | 52.6 nM |
| CN1C(=N)N[C@](C)(c2cc(-c3nnc(-c4ccccc4)o3)ccc2F)CS1(=O)=O [Example 24] | 9870 nM | 1490 nM |
| CN1C(=N)N[C@](C)(c2cc(-c3nnc(-c4ccc(Cl)cc4)o3)ccc2F)CS1(=O)=O [Example 25] | 2590 nM | 595 nM |
| CN1C(=N)N[C@](C)(c2cc(-c3nnc(-c4cnco4)o3)ccc2F)CS1(=O)=O [Example 26] | 1240 nM | 802 nM |
| CN1C(=N)N[C@](C)(c2sc(-c3nnc(-c4cccnc4)o3)cc2Cl)CS1(=O)=O [Example 29] | 1050 nM | 698 nM |
| CN1C(=N)N[C@](C)(c2sc(-c3nnc(-c4cccc(C#N)c4)o3)cc2Cl)CS1(=O)=O [Example 31] | 1210 nM | 1240 nM |
| CN1C(=N)N[C@](C)(c2sc(-c3nnc(-c4cnn5ccccc45)o3)cc2Cl)CS1(=O)=O [Example 35] | 2370 nM | 450 nM |
| CN1C(=N)N[C@](C)(c2sc(-c3nnc(-c4cncnc4)o3)cc2Cl)CS1(=O)=O [Example 39] | 5400 nM | 1660 nM |
| CN1C(=N)N[C@](C)(c2sc(-c3nnc(-c4ccon4)o3)cc2Cl)CS1(=O)=O [Example 44] | 1340 nM | 156 nM |
| CN1C(=N)N[C@](C)(c2sc(-c3nnc(-c4ccn(C)n4)o3)cc2Cl)CS1(=O)=O [Example 46] | 1140 nM | 130 nM |
| CN1C(=N)N[C@](C)(c2sc(-c3nnc(-c4ccnn4C)o3)cc2Cl)CS1(=O)=O [Example 47] | 1520 nM | 712 nM |
| CN1C(=N)N[C@](C)(c2cc(-c3nnc(-c4nccs4)o3)ccc2F)CS1(=O)=O [Example 49] | 4000 nM | 490 nM |
| CN1C(=N)N[C@](C)(c2cc(-c3nnc(-c4cncs4)o3)ccc2F)CS1(=O)=O [Example 50] | 9920 nM | 4220 nM |
| CN1C(=N)N[C@](C)(c2cc(-c3nnc(-c4cscn4)o3)ccc2F)CS1(=O)=O [Example 51] | 8600 nM | 1540 nM |
| CN1C(=N)N[C@](C)(c2cc(-c3nnc(C4Cc5ccccc5C4)o3)ccc2F)CS1(=O)=O [Example 52] | 7690 nM | 2680 nM |
| CN1C(=N)N[C@](C)(c2cc(-c3nnc(-c4ncco4)o3)ccc2F)CS1(=O)=O [Example 53] | 3420 nM | 186 nM |
| CN1C(=N)N[C@](C)(c2cc(-c3nnc(-c4cocn4)o3)ccc2F)CS1(=O)=O [Example 54] | 7550 nM | 1690 nM |

The next lines start with the values.

| Ki [1] | Ki [2] | SMILES |
| --- | --- | --- |
| 2.1 nM | 0.69 nM | CN1C(=N)N[C@](C)(c2sc(-c3ccc(-c4ccccc4)[nH]3)cc2Cl)CS1(=O)=O [Example 1] |
| 112 nM | 14.8 nM | CN1C(=N)N[C@](C)(c2sc(-c3ncc(-c4ccccc4)[nH]3)cc2Cl)CS1(=O)=O [Example 2] |
| 470 nM | 87.9 nM | CN1C(=N)N[C@](C)(c2sc(-c3ncc(-c4ccccn4)[nH]3)cc2Cl)CS1(=O)=O [Example 3] |
| 270 nM | 69 nM | CN1C(=N)N[C@](C)(c2sc(-c3ccc(C4=NCCO4)[nH]3)cc2Cl)CS1(=O)=O [Example 6] |
| 87 nM | 35 nM | CC1CN=C(c2ccc(-c3cc(Cl)c([C@]4(C)CS(=O)(=O)N(C)C(=N)N4)s3)[nH]2)O1 (stereo partly drawn) [Example 7] |
| 2.8 nM | 10.9 nM | CN1C(=N)N[C@](C)(c2sc(-c3ccc(-c4nnco4)[nH]3)cc2Cl)CS1(=O)=O [Example 8] |
| 8.1 nM | 8.24 nM | Cc1nnc(-c2ccc(-c3cc(Cl)c([C@]4(C)CS(=O)(=O)N(C)C(=N)N4)s3)[nH]2)o1 [Example 9] |
| 87 nM | 11.3 nM | CN1C(=N)N[C@](C)(c2sc(-c3ccc(-c4nnc(C5CC5)o4)[nH]3)cc2Cl)CS1(=O)=O [Example 10] |
| 45 nM | 172 nM | CN1C(=N)N[C@](C)(c2cc(-c3ccc(-c4nnco4)[nH]3)ccc2F)CS1(=O)=O [Example 11] |
| 943 nM | 144 nM | CN1C(=N)N[C@](C)(c2sc(-c3cc(-c4ccccc4)no3)cc2Cl)CS1(=O)=O [Example 14] |
| 555 nM | 58.4 nM | CN1C(=N)N[C@](C)(c2sc(-c3nnc(-c4ccccn4)o3)cc2Cl)CS1(=O)=O [Example 21] |
| 34.6 nM | 44.9 nM | CN1C(=N)N[C@](C)(c2sc(-c3nnc(-c4ccc(C#N)cc4)o3)cc2Cl)CS1(=O)=O [Example 23] |
| 683 nM | 284 nM | CN1C(=N)N[C@](C)(c2sc(-c3nnc(-c4cnccn4)o3)cc2Cl)CS1(=O)=O [Example 27] |
| 558 nM | 332 nM | CN1C(=N)N[C@](C)(c2sc(-c3nnc(-c4ccncc4)o3)cc2Cl)CS1(=O)=O [Example 28] |
| 260 nM | 96.8 nM | CN1C(=N)N[C@](C)(c2sc(-c3nnc(-c4cc5ccccn5n4)o3)cc2Cl)CS1(=O)=O [Example 30] |
| 402 nM | 44.3 nM | CN1C(=N)N[C@](C)(c2sc(-c3nnc(-c4nccs4)o3)cc2Cl)CS1(=O)=O [Example 32] |
| 863 nM | 347 nM | CN1C(=N)N[C@](C)(c2sc(-c3nnc(-c4cncs4)o3)cc2Cl)CS1(=O)=O [Example 33] |
| 561 nM | 217 nM | CN1C(=N)N[C@](C)(c2sc(-c3nnc(-c4cccc5ccnn45)o3)cc2Cl)CS1(=O)=O [Example 34] |
| 778 nM | 104 nM | CN1C(=N)N[C@](C)(c2sc(-c3nnc(-c4ncccn4)o3)cc2Cl)CS1(=O)=O [Example 36] |
| 662 nM | 69.1 nM | CN1C(=N)N[C@](C)(c2sc(-c3nnc(-c4cscn4)o3)cc2Cl)CS1(=O)=O [Example 37] |
| 255 nM | 124 nM | CN1C(=N)N[C@](C)(c2sc(-c3nnc(C4Cc5ccccc5C4)o3)cc2Cl)CS1(=O)=O [Example 38] |
| 250 nM | 142 nM | CN1C(=N)N[C@](C)(c2sc(-c3nnc(-c4cnco4)o3)cc2Cl)CS1(=O)=O [Example 40] |
| 441 nM | 31.7 nM | CN1C(=N)N[C@](C)(c2sc(-c3nnc(-c4ncco4)o3)cc2Cl)CS1(=O)=O [Example 41] |
| 925 nM | 142 nM | CN1C(=N)N[C@](C)(c2sc(-c3nnc(-c4cocn4)o3)cc2Cl)CS1(=O)=O [Example 42] |
| 822 nM | 305 nM | CN1C(=N)N[C@](C)(c2sc(-c3nnc(-c4ccncn4)o3)cc2Cl)CS1(=O)=O [Example 43] |
| 407 nM | 226 nM | CN1C(=N)N[C@](C)(c2sc(-c3nnc(-c4cnn(C)c4)o3)cc2Cl)CS1(=O)=O [Example 45] |
| 882 nM | 116 nM | CN1C(=N)N[C@](C)(c2sc(-c3nnc(C4CC4)o3)cc2Cl)CS1(=O)=O [Example 48] |
